This passage reports IC50 results from US20030158199A1, “Novel compounds for inhibition of Tie-2” (KYLIX, B.V., priority 2002, published 2003).

Molecules are shown by their SMILES. Where a name gives a salt, the structure may show the parent alone.

Common to all, as to type: biochemical
One experiment addresses T1, KDR (Homo sapiens, UniProt P35968).
T1 construct: GST-KDR (aa807-1356); GST (N); purchased ProQuinase, Freiburg; host or cells: baculovirus infected insect cells Sf9
The experiment can be described thus: RTK ELISA, recombinant kinase domain, KDR. The note with it: GST-KDR (aa807-1356) expressed in baculovirus infected insect cells. The protocol:
(§1) Follwing IC50 values were determined in the RTK ELISA using recombinant kinase domains of receptor tyrosine kinases which were expressed in baculovirus infected insect cells.
(§2) Receptor Tyrosine Kinase Assay
(§3) The following in vitro assays are used to determine the ability of different compounds to inhibit the transfer of phosphate groups onto tyrosine residues of downstream substrates. The level of phosphorylation is measured by a monoclonal antibody which is specific for phosphorylated tyrosine residues in an enzyme-linked immunosorbent assay (ELISA).
(§4) The following recombinant kinases were expressed in baculovirus infected insect cells Sf9 and purchased from ProQuinase, Freiburg:
(§5) If not otherwise indicated all steps are performed at room temperature.
(§6) 1.) Coat wells of ELISA plate with […] Poly-Glu-Tyr 4:1 in 100 μl/well PBS buffer (137 mM NaCl, 3 mM KCl, 1.5 mM KH2PO4, 8.2 mM Na2HPO4) overnight at 4° C.
(§7) 2.) Wash 2 times for 5 min each with PBS+0.05% Tween20 […]
(§8) a) Add 5-30 ng/well kinase in 50 μl/well kinase buffer (100 mM HEPES pH 7.4, 100 mM NaCl, 0.1 mM Na3VO4) b) Add 25 μl/well compound (50 and 5 μM) in 5% DMSO c) Add 25 μl/well 100 μM ATP in 40 mM MnCl2
(§9) 4.) Wash 3 times for 5 min each with PBS+0.05% Tween20
(§10) 5.) Add anti phosphotyrosin antibody/HRP 1:10.000 in 100 μl/well PBS+0.05% Tween+0.1 BSA, incubate for 1 h
(§11) 6.) Wash 3 times for 5 min each with PBS+0.05% Tween20
(§12) 7.) Chemoluminescence reaction: a.) Premix 25 μl/well BM CLS Solution 1 with 0.25 μl/well BM CLS Solution 2 b.) Preincubate for 15 min […]
(§13) d.) Add 50 μl/well substrate solution to microtiter wells e.) Incubate for at least 1 min
(§14) 8.) Detect chemoluminescence signals in Tecan Genios reader
For orientation: An ELISA detects its analyte on a solid surface through an enzyme-linked reagent.

For a further experiment, the target named is T2, Tie-2 (Homo sapiens, UniProt Q02763).
T2 construct: GST-Tie2/Tek (aa 771-1124); GST (N); purchased ProQuinase, Freiburg; host or cells: baculovirus infected insect cells Sf9
Description: RTK ELISA, recombinant kinase domain, Tie-2. The note with it: GST-Tie2/Tek (aa 771-1124) expressed in baculovirus infected insect cells. The protocol: as §1, §2, §3, §4, §5, §6, §7, §8, §9, §10, §11, §12, §13, §14

In the next experiment the target is T3, c-Met (Homo sapiens, UniProt P08581).
T3 construct: GST-cMet (aa956-1390); GST (N); purchased ProQuinase, Freiburg; host or cells: baculovirus infected insect cells Sf9
Description: RTK ELISA, recombinant kinase domain, c-Met. The note with it: GST-cMet (aa956-1390) expressed in baculovirus infected insect cells. The protocol: as §1, §2, §3, §4, §5, §6, §7, §8, §9, §10, §11, §12, §13, §14

T2 sequence (Q02763 771-1124): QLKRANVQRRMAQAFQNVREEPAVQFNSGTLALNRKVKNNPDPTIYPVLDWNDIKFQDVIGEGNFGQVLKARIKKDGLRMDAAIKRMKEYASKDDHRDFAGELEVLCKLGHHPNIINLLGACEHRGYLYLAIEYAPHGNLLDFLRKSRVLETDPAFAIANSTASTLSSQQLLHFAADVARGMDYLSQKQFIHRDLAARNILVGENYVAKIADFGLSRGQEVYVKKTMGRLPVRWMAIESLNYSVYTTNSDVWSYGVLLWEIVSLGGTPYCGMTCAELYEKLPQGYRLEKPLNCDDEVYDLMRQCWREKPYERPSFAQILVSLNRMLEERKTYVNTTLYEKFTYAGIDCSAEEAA
T1 sequence (P35968 807-1356): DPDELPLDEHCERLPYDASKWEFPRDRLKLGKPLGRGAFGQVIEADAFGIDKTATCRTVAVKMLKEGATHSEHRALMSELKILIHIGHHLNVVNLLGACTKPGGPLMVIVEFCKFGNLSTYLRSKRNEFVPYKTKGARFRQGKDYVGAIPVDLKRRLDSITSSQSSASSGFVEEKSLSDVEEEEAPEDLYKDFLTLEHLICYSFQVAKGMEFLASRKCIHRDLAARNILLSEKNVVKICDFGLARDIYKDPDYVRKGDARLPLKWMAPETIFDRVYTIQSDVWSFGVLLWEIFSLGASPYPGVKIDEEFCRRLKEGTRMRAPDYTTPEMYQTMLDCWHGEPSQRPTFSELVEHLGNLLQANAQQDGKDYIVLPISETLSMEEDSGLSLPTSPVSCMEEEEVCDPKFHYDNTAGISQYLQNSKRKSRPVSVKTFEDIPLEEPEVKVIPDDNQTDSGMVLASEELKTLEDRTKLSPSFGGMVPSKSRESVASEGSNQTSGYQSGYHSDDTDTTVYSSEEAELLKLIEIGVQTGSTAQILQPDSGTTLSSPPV
T3 sequence (P08581 956-1390): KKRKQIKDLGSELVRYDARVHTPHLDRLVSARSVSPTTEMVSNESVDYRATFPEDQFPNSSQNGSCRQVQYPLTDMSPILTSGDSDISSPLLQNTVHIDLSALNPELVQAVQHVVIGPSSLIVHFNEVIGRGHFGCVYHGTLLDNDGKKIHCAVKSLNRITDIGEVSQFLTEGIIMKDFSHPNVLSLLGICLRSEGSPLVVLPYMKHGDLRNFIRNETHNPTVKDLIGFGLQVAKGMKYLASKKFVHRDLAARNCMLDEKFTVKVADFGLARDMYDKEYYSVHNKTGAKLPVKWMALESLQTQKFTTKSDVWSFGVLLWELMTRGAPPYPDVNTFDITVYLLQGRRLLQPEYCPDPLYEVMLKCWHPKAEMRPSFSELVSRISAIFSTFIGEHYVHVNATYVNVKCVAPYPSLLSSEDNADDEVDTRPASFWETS

A word on the IC50: it is the midpoint of a concentration-inhibition curve. Regarding `CNc1nccs1` [Number 2, methyl-thiazol-2-yl-amine Hydrochloride], the figures for the half-maximal inhibitory concentration (IC50) on KDR, on Tie-2 and at c-Met were 5 µM, greater than 50 µM and greater than 50 µM, respectively.

Consider `c1ccc(Nc2nccs2)cc1` [Number 3, phenyl-thiazol-2-yl-amine Hydrochloride], for which the IC50 is 3.5 µM on KDR and greater than 50 µM at c-Met.

In the case of `c1cncc(Nc2nccs2)c1` [Number 4, pyridin-3-yl-thiazol-2-yl-amine Hydrochloride], the 50% inhibitory concentration (IC50) on KDR is 5 µM; at Tie-2, greater than 50 µM; on c-Met, greater than 25 µM.

Regarding `Nc1nc(-c2ccc(N3CCCC3)cc2)cs1` [Number 5, 4-(4-pyrrolidin-1-yl-phenyl)-thiazol-2-ylamine Hydrobromide], the IC50 on KDR is 5 µM; on Tie-2 it was 2.5 µM; at c-Met, 5 µM.

With `Nc1nc(-c2ccc(N3CCCC3)cc2)co1` [Number 6, 4-(4-pyrrolidin-1-yl-phenyl)-oxazol-2-ylamine Hydrobromide], the IC50 on KDR was greater than 25 µM; at Tie-2, 5 µM; at c-Met, greater than 50 µM.

Turning to `CNc1nc(-c2ccc(N3CCCC3)cc2)cs1` [Number 7, methyl-[4-(4-pyrrolidin-1-yl-phenyl)-thiazol-2-yl]-amine Hydrobromide], the figures for the 50% inhibitory concentration (IC50) on KDR, on Tie-2 and at c-Met were 7 µM, 3 µM and greater than 50 µM, respectively.

As for `c1ccc(Nc2nc(-c3ccc(N4CCCC4)cc3)cs2)cc1` [Number 8, phenyl-[4-(4-pyrrolidin-1-yl-phenyl)-thiazol-2-yl]-amine Hydrobromide], the figures for the IC50 at KDR, on Tie-2 and on c-Met were 2.5 µM, 5 µM and greater than 25 µM, respectively.

Turning to `CN(c1ccccc1)c1nc(-c2ccc(N3CCCC3)cc2)cs1` [Number 9, methyl-phenyl-[4-(4-pyrrolidin-1-yl-phenyl)-thiazol-2-yl]-amine Hydrobromide], the values for the IC50 at KDR, on Tie-2 and at c-Met were greater than 25 µM, 2.5 µM and greater than 25 µM, respectively.

On to `c1ccc(CNc2nc(-c3ccc(N4CCCC4)cc3)cs2)cc1` [Number 10, benzyl-[4-(4-pyrrolidin-1-yl-phenyl)-thiazol-2-yl]-amine Hydrobromide], for which the IC50 on KDR is greater than 50 µM; on Tie-2, 5 µM; at c-Met, greater than 50 µM.

As for `c1ccc(CCNc2nc(-c3ccc(N4CCCC4)cc3)cs2)cc1` [Number 11, phenylethyl-[4-(4-pyrrolidin-1-yl-phenyl)-thiazol-2-yl]-amine Hydrobromide], the IC50 on Tie-2 was greater than 50 µM.

Take `c1ccc(Nc2nc(-c3ccc(N4CCCC4)cc3)cs2)nc1` [Number 12, Hydrobromide]: the IC50 on Tie-2 is greater than 50 µM.

As for `c1cncc(Nc2nc(-c3ccc(N4CCCC4)cc3)cs2)c1` [Number 13, Hydrobromide], the results for the IC50 on KDR, at Tie-2 and on c-Met were 2 µM, 1 µM and greater than 10 µM, respectively.

With `c1cncc(-c2nc(-c3ccc(N4CCCC4)cc3)co2)c1` [Number 14, 3-[4-(4-pyrrolidin-1-yl-phenyl)-oxazol-2-yl]-pyridine Hydrobromide], the values for the half-inhibitory concentration (IC50) on KDR, at Tie-2 and at c-Met were greater than 50 µM, 5 µM and greater than 25 µM, respectively.

For the compound `c1cc(Nc2nc(-c3ccc(N4CCCC4)cc3)cs2)ccn1` [Number 15, pyridin-4-yl-[4-(4-pyrrolidin-1-yl-phenyl)-thiazol-2-yl]-amine Hydrobromide], the IC50 on KDR was 5 µM; at Tie-2 it was 1 µM; on c-Met, greater than 10 µM.

Turning to `c1cc(-c2nc(-c3ccc(N4CCCC4)cc3)co2)ccn1` [Number 16, 4-[4-(4-pyrzolidin-1-yl-phenyl)-oxazol-2-yl]-pyridine Hydrobromide], the half-inhibitory concentration (IC50) at KDR, at Tie-2 and at c-Met was greater than 50 µM in each case.

As to `O=[N+]([O-])c1ccc(Nc2nc(-c3ccc(N4CCCC4)cc3)cs2)cc1` [Number 17, Dihydrobromide], the figures for the IC50 on KDR, at Tie-2 and at c-Met were greater than 10 µM, 2 µM and greater than 25 µM, respectively.

Regarding `c1cc(Nc2nc(-c3ccc(N4CCCC4)cc3)cs2)ccc1Nc1nc(-c2ccc(N3CCCC3)cc2)cs1` [Number 18, N,N′-bis-[4-(4-pyrrolidin-1-yl-phenyl)-thiazol-2-yl]-benzene-1,4-diamine Dihydrobromide], the IC50 was greater than 10 µM at KDR, greater than 10 µM on Tie-2 and greater than 50 µM at c-Met.

Take `FC(F)(F)c1cccc(Nc2nc(-c3ccc(N4CCCC4)cc3)cs2)c1` [Number 19, [4-(4-pyrrolidin-1-yl-phenyl)-thiazol-2-yl]-(3-trifluoromethyl-phenyl)-amine Hydrobromide]: the half-maximal inhibitory concentration (IC50) on KDR was 2 µM; on Tie-2 it was 2 µM; at c-Met it was greater than 50 µM.

`O=C(O)c1ccc(Nc2nc(-c3ccc(N4CCCC4)cc3)cs2)cc1` [Number 20, 4-[4-(4-pyrrolidin-1-yl-phenyl)-thiazol-2-ylamino]-benzoic Acid Hydrobromide]: the IC50 at KDR is 1 µM; on Tie-2, less than 1 µM; on c-Met it was greater than 10 µM.

Regarding `Cc1nc(-c2ccc(N3CCCC3)cc2)cs1` [Number 21, 2-methyl-4-(4-pyrrolidin-1-yl-phenyl)-thiazole Hydrobromide], the figures for the concentration for half-maximal inhibition (IC50) on Tie-2 and at c-Met were 2.5 µM and greater than 50 µM, respectively.

As for `CCN(CC)c1ccc(-c2csc(N)n2)cc1` [Number 23, 4-(4-diethylamino-phenyl)-thiazol-2-ylamine Hydrobromide], the values for the IC50 on KDR, at Tie-2 and on c-Met were 2 µM, 5 µM and greater than 50 µM, respectively.

Consider `CCN(CC)c1ccc(-c2coc(N)n2)cc1` [Number 24, 4-(4-diethylamino-phenyl)-oxazol-2-ylamine Hydrobromide], for which the values for the IC50 at KDR, on Tie-2 and at c-Met were 1.5 µM, 5 µM and greater than 50 µM, respectively.

Turning to `CCN(CC)c1ccc(-c2csc(NC)n2)cc1` [Number 25, [4-(4-diethylamino-phenyl)-thiazol-2-yl]-methyl-amine Hydrobromide], the half-inhibitory concentration (IC50) is 5 µM at KDR, 1 µM at Tie-2 and greater than 50 µM at c-Met.

`CCN(CC)c1ccc(-c2csc(Nc3ccccc3)n2)cc1` [Number 26, [4-(4-Diethylamino-phenyl)-thiazol-2-yl]-phenyl-amine Hydrobromide]: the concentration for half-maximal inhibition (IC50) at KDR was 2 µM; at Tie-2 it was 2 µM; on c-Met it was greater than 25 µM.

On to `CCN(CC)c1ccc(-c2csc(N(C)c3ccccc3)n2)cc1` [Number 27, [4-(4-diethylamino-phenyl)-thiazol-2-yl]-methyl-phenyl-amine Hydrobromide], for which the half-inhibitory concentration (IC50) at KDR, on Tie-2 and on c-Met was greater than 50 µM each time.

For `CCN(CC)c1ccc(-c2csc(NCc3ccccc3)n2)cc1` [Number 28, benzyl-[4-(4-diethylamino-phenyl)-thiazol-2-yl]-amine Hydrobromide], the IC50 at KDR, on Tie-2 and on c-Met was greater than 50 µM in each case.

Consider `CCN(CC)c1ccc(-c2csc(Nc3ccccn3)n2)cc1` [Number 29, [4-(4-diethylamino-phenyl)-thiazol-2-yl)-pyridin-2-yl-amine Hydrobromide], for which the IC50 at KDR, on Tie-2 and at c-Met was greater than 50 µM each time.

As for `CCN(CC)c1ccc(-c2csc(Nc3cccnc3)n2)cc1` [Number 30], the figures for the IC50 on KDR, on Tie-2 and at c-Met were 3 µM, 0.8 µM and greater than 50 µM, respectively.

`CCN(CC)c1ccc(-c2csc(Nc3cccc(C(F)(F)F)c3)n2)cc1` [Number 32, [4-(4-diethylamino-phenyl)-thiazol-2-yl-(3-trifluoromethyl-phenyl)-amine Hydrobromide]: the IC50 at KDR was 5 µM; at Tie-2, 3 µM; on c-Met, greater than 50 µM.

For `CCN(CC)c1ccc(-c2csc(C)n2)cc1` [Number 33, diethyl-[4-(2-methyl-thiazol-4-yl)-phenyl]-amine Hydrobromide], the figures for the IC50 at KDR, at Tie-2 and on c-Met were 5 µM, 5 µM and greater than 50 µM, respectively.

As to `CNc1nc(-c2cnn(-c3ccccc3)c2C)cs1` [Number 34, methyl-[4-(5-methyl-1-phenyl-1H-pyrazol-4-yl)-thiazol-2-yl]-amine Hydrochloride], the 50% inhibitory concentration (IC50) at KDR was 1.5 µM; at Tie-2 it was 1.5 µM; on c-Met, greater than 50 µM.
